Experimental data published in patent US7018981B2, “Cyclic motilin receptor antagonists” (Chugai Seiyaku Kabushiki Kaisha, priority 2000, dated 2006).
Read-outs that look alike come from different tables or passages of the source. Where a SMILES comes first, the peptide text is derived from it. Bridges are numbered along the chain shown (N, C = ends). [ ]: non-standard residue; d: D form. Tyr(3-tBu) = CC(C)(C)c1cc(C[CH](N)C(=O)O)ccc1O; βAla = NCCC(=O)O

Columns and labels:
[1] = amide bond, BOP, 25.0 °C
[2] = amide bond, 25.0 °C
motilin receptors = target: T1, motilin receptors (Oryctolagus cuniculus, UniProt G1T803); assay: Motilin receptor binding test (125I motilin, rabbit duodenum protein solution); settings: concentration inhibiting 50% of specific binding of 25 pM 125I motilin; rabbit duodenum homogenate, 2 hours at 25° C.
T1 construct: A protein solution was prepared by homogenizing the duodenum isolated from a killed rabbit; from tissue; host or cells: rabbit duodenum, mucosa stripped, homogenate
Method: Motilin receptor binding activities of compounds of the present invention were tested as follows [Vantrappen et al., Regul.
A protein solution was prepared by homogenizing the duodenum isolated from a killed rabbit in 50 mM Tris after stripping the mucosa. […] The difference between the radioactivity of the protein solution incubated alone and the radioactivity of the protein solution incubated with a large excess of motilin (10^−7 M) was recorded as specific binding of motilin to motilin receptors.

[3] = test system: motilin-induced contraction of a sample of the longitudinal muscle of the duodenum; assay: Contraction inhibition test: motilin-induced contraction of rabbit longitudinal duodenal muscle; type: cell-based; settings: Oryctolagus cuniculus; concentration-dependent contraction induced by motilin; rabbit duodenal specimen in Krebs solution at 28° C.; read-out: Contraction inhibition test pA2 (converted)
Method: The effect of compounds of the present invention on motilin-induced contraction of a sample of the longitudinal muscle of the duodenum extracted from a rabbit was tested as follows.
A duodenal specimen (5×15 mm) extracted from a killed rabbit was suspended in the direction of the longitudinal muscle in an incubator at 28° C. filled with Krebs solution (10 ml organ bath). A mixed gas (95% O2, 5% CO2) was continuously passed through the Krebs solution and the contraction of the duodenal specimen was isotonically recorded (under a load of 1 g) via an isotonic transducer (ME-3407, ME Commercial, Tokyo, Japan). The extent of contraction of the duodenal specimen was expressed as a percentage to the contraction induced by acetylcholine at a concentration of 10^−4 M.
The effect of the compounds synthesized in Examples 1–8 and 10 on the concentration-dependent contraction induced by motilin added into the incubator was determined to calculate pA2 (see “Drug receptors” edited by Takayanagi, published by Nanzando). As a comparative example, the results of the compound of formula (5) are also shown.

[4] = 14-membered ring, BOP, DMF/pyridine 1:1, 9.9 mM, 2 steps

T1 sequence (G1T803 1-400): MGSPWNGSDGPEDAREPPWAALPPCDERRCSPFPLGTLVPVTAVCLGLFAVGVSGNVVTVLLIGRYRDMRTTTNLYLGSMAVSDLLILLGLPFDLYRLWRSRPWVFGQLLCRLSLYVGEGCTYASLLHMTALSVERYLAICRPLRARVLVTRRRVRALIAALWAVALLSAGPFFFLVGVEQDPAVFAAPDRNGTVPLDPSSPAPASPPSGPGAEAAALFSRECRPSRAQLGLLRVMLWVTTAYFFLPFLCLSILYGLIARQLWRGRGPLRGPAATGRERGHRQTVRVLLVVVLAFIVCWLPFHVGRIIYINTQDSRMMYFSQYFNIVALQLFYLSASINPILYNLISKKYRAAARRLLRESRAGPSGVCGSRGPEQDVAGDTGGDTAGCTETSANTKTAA

For `CC(=O)N1CCCC[C@H](N(C)C(=O)[C@H](Cc2ccc(F)cc2)NC(=O)OC(C)(C)C)C(=O)N[C@@H](Cc2ccc(O)c(C(C)(C)C)c2)C(=O)NCCC1`, which ring closure, yield of all isomers ([1]; from CC(=O)N(CCCN)CCCC[C@@H](C(=O)N[C@@H](Cc1ccc(O)c(C(C)(C)C)c1)C(=O)O)N(C)C(=O)[C@H](Cc1ccc(F)cc1)NC(=O)OC(C)(C)C, DMF, 9.87 mM, 18.0 h) is on record?
The ring closure, yield of all isomers was 55%.

Which ring closure, isolated yield ([2]; from Z-Lys-Tyr(3-tBu)-bAla-OH?, 14-membered ring, BOP/pyridine, MeCN/pyridine 1:1, 10.2 mM, 3 steps) does the source give for `CC(C)(C)c1cc(C[C@@H]2NC(=O)C(N)CCCCNC(=O)CCNC2=O)ccc1O` (stereo partly drawn) here?
The ring closure, isolated yield was 90%.

With `CC(C)(C)c1cc(C[C@@H]2NC(=O)[C@@H](N)CCCCNC(=O)CCNC2=O)ccc1O` as the compound, how does the ring closure, yield of all isomers ([1]; from CC(C)(C)OC(=O)CCNC(=O)[C@H](Cc1ccc(O)c(C(C)(C)C)c1)NC(=O)[C@H](CCCCNC(=O)OC(C)(C)C)NC(=O)OCc1ccccc1, acetonitrile, 10.2 mM, 21.0 h, 3 steps) read?
The ring closure, yield of all isomers was 90%.

For `CN(C(=O)[C@H](Cc1ccc(F)cc1)NC(=O)OC(C)(C)C)[C@H]1CCCCNC(=O)CCCNC(=O)[C@H](Cc2ccc(O)c(C(C)(C)C)c2)NC1=O`, which ring closure, yield of all isomers ([1]; from CN(C(=O)[C@H](Cc1ccc(F)cc1)NC(=O)OC(C)(C)C)[C@@H](CCCCN)C(=O)N[C@@H](Cc1ccc(O)c(C(C)(C)C)c1)C(=O)NCCCC(=O)O, DMF, 10.1 mM, 16.0 h) is on record?
The ring closure, yield of all isomers was 82%.

Which ring closure, yield of all isomers ([1]; from CN(C(=O)[C@H](Cc1ccc(F)cc1)NC(=O)OC(C)(C)C)[C@@H](CCCCN)C(=O)N(C)[C@@H](Cc1ccc(O)c(C(C)(C)C)c1)C(=O)NCCC(=O)O, DMF, 10.0 mM, 26.0 h, 2 steps) does the source give for `CN(C(=O)[C@H](Cc1ccc(F)cc1)NC(=O)OC(C)(C)C)[C@H]1CCCCNC(=O)CCNC(=O)[C@H](Cc2ccc(O)c(C(C)(C)C)c2)N(C)C1=O` here?
The ring closure, yield of all isomers was 36%.

With `CN(C(=O)[C@H](Cc1ccc(F)cc1)NC(=O)OC(C)(C)C)[C@H]1CCCCNC(=O)CCNC(=O)[C@H](Cc2ccc(O)c(C(C)(C)C)c2)NC1=O` as the compound, how does the ring closure, yield of all isomers ([1]; from CN(C(=O)[C@H](Cc1ccc(F)cc1)NC(=O)OC(C)(C)C)[C@@H](CCCCN)C(=O)N[C@@H](Cc1ccc(O)c(C(C)(C)C)c1)C(=O)NCCC(=O)O, DMF, 10.1 mM, 18.0 h) read?
The ring closure, yield of all isomers was 69%.

For `CN(C(=O)[C@H](Cc1ccc(F)cc1)NC(=O)OC(C)(C)C)[C@H]1CCCCNC(=O)CNC(=O)[C@H](Cc2ccc(O)c(C(C)(C)C)c2)NC1=O`, which ring closure, yield of all isomers ([1]; from CN(C(=O)[C@H](Cc1ccc(F)cc1)NC(=O)OC(C)(C)C)[C@@H](CCCCN)C(=O)N[C@@H](Cc1ccc(O)c(C(C)(C)C)c1)C(=O)NCC(=O)O, DMF, 10.75 mM, 23.0 h, 2 steps) is on record?
Its ring closure, yield of all isomers is 60%.

For `CN(C(=O)[C@H](Cc1ccccc1)NC(=O)OCc1ccccc1)[C@H]1CCCCNC(=O)CCNC(=O)[C@H](Cc2ccc(O)c(C(C)(C)C)c2)NC1=O`, which ring closure, yield of all isomers ([1]; from CN(C(=O)[C@H](Cc1ccccc1)NC(=O)OCc1ccccc1)[C@@H](CCCCN)C(=O)N[C@@H](Cc1ccc(O)c(C(C)(C)C)c1)C(=O)NCCC(=O)O, DMF, 9.91 mM, 2 steps) is on record?
The ring closure, yield of all isomers was 48%.

With `CN1CCC(=O)NCCCC[C@H](N(C)C(=O)[C@H](Cc2ccc(F)cc2)NC(=O)OC(C)(C)C)C(=O)N[C@@H](Cc2ccc(O)c(C(C)(C)C)c2)C1=O` as the compound, how does the ring closure, yield of all isomers ([1]; from CN(CCC(=O)O)C(=O)[C@H](Cc1ccc(O)c(C(C)(C)C)c1)NC(=O)[C@H](CCCCN)N(C)C(=O)[C@H](Cc1ccc(F)cc1)NC(=O)OC(C)(C)C, DMF, 10.3 mM, 16.0 h) read?
Its ring closure, yield of all isomers is 60%.

With `CN1CCCC[C@H](N(C)C(=O)[C@H](Cc2ccc(F)cc2)NC(=O)OC(C)(C)C)C(=O)N[C@@H](Cc2ccc(O)c(C(C)(C)C)c2)C(=O)NCCC1=O` as the compound, how does the ring closure, yield of all isomers ([1]; from CNCCCC[C@@H](C(=O)N[C@@H](Cc1ccc(O)c(C(C)(C)C)c1)C(=O)NCCC(=O)O)N(C)C(=O)[C@H](Cc1ccc(F)cc1)NC(=O)OC(C)(C)C, DMF, 10.5 mM, 16.0 h) read?
The ring closure, yield of all isomers was 36%.

For `CN1CCC[C@H](N(C)C(=O)[C@H](Cc2ccc(F)cc2)NC(=O)OC(C)(C)C)C(=O)N[C@@H](Cc2ccc(O)c(C(C)(C)C)c2)C(=O)NCCCC1=O`, which ring closure, yield of all isomers ([1]; from CNCCC[C@@H](C(=O)N[C@@H](Cc1ccc(O)c(C(C)(C)C)c1)C(=O)NCCCC(=O)O)N(C)C(=O)[C@H](Cc1ccc(F)cc1)NC(=O)OC(C)(C)C, DMF, 9.93 mM, 12.0 h, 2 steps) is on record?
The ring closure, yield of all isomers was 60%.

With “2S-(2S,13S))-N-(8-acetyl-2-(3-tert-butyl-4-hydroxyphenylmethyl)-3,14-dioxo-1,4,8-triazacyclotetradec-13-yl)-2-tert-butoxycarbonylamino-3-(4-fluorophenyl)-N-methylpropionamide” as the compound, how does the ring closure, isolated yield ([2]; 14-membered ring, BOP/pyridine, DMF/pyridine 1:1, 9.9 mM) read?
The ring closure, isolated yield was 55%.

With `CC(C)(C)c1cc(CC2NC(=O)C(NC(=O)C(N)Cc3ccccc3)CCCCNC(=O)CCNC2=O)ccc1O` (stereo not drawn) [Comparative example, reference compound] (H-FK[Tyr(3-tBu)][βAla]; lactam 2-C; configuration not given here) as the compound, how does the IC50 (motilin receptors) read?
The IC50 was 10 nM.

What about the Kb [3] of the same compound?
The Kb was 63.1 nM.

For `CN1CCC[C@H](N(C)C(=O)[C@@H](N)Cc2ccc(F)cc2)C(=O)N[C@@H](Cc2ccc(O)c(C(C)(C)C)c2)C(=O)NCCCC1=O` [Example 9, (2S-(2S,13S))-2-amino-N-(2-(3-tert-butyl-4-hydroxyphenylmethyl)-9,N-dimethyl-1,4,9-triaza-3,8,14-trioxocyclotetradec-13-yl)-3-(4-fluorophenyl)propionamide], which IC50 (motilin receptors) is on record?
Its IC50 is 5.3 nM.

With “(2S-(2S,12S))-2-tert-butoxycarbonylamino-N-(2-(3-tert-butyl-4-hydroxyphenylmethyl)-1,4,8-triaza-3,7,13-trioxocyclotridec-12-yl)-3-(4-fluorophenyl)-N-methylpropionamide” as the compound, how does the ring closure, isolated yield ([2]; 13-membered ring, BOP/pyridine, DMF/pyridine 1:1, 10.75 mM, 2 steps) read?
Its ring closure, isolated yield is 60%.

For “(2S-(2S,13S))-2-(tert-butoxycarbonylamino)-N-(2-(3-tert-butyl-4-hydroxyphenylmethyl)-8-methyl-1,4, 8-triaza-3,7,14-trioxocyclotetradec-13-yl)-3-(4-fluorophenyl)-N-methylpropionamide”, which ring closure, isolated yield ([2]; 14-membered ring, BOP/pyridine, DMF/pyridine 1:1, 10.5 mM) is on record?
The ring closure, isolated yield was 36%.

For “(2S-(2S,13S))-2-benzyloxycarbonylamino-N-(2-(3-tert-butyl-4-hydroxyphenylmethyl)-1,4,8-triaza-3,7,14-trioxocyclotetradec-13-yl)-3-phenyl-N-methylpropionamide”, which ring closure, isolated yield [2, 4] is on record?
The ring closure, isolated yield was 48%.

Which ring closure, isolated yield ([2]; 14-membered ring, BOP/pyridine, DMF/pyridine 1:1, 10.1 mM) does the source give for “(2S-(2S,13S))-2-tert-butoxycarbonylamino-N-(2-(3-tert-butyl-4-hydroxyphenylmethyl)-1,4,8-triaza-3,7,14-trioxocyclotetradec-13-yl)-3-(4-fluorophenyl)-N-methylpropionamide” here?
The ring closure, isolated yield was 69%.

With “(2S-(2S,13S))-2-tert-butoxycarbonylamino-N-(2-(3-tert-butyl-4-hydroxyphenylmethyl)-1-methyl-1,4,8-triaza-3,7,14-trioxocyclotetradec-13-yl)-3-(4-fluorophenyl)-N-methylpropionamide” as the compound, how does the ring closure, isolated yield ([2]; 14-membered ring, BOP/pyridine, DMF/pyridine 1:1, 10.0 mM, 2 steps) read?
The ring closure, isolated yield was 36%.

With “(2S-(2S,13S))-2-tert-butoxycarbonylamino-N-(2-(3-tert-butyl-4-hydroxyphenylmethyl)-4-methyl-1,4,8-triaza-3,7,14-trioxocyclotetradec-13-yl)-3-(4-fluorophenyl)-N-methylpropionamide” as the compound, how does the ring closure, isolated yield ([2]; 14-membered ring, BOP/pyridine, DMF/pyridine 1:1, 10.3 mM) read?
The ring closure, isolated yield was 60%.

For “(2S-(2S,13S))-2-tert-butoxycarbonylamino-N-(2-(3-tert-butyl-4-hydroxyphenylmethyl)-9-methyl-1,4,9-triaza-3,8,14-trioxocyclotetradec-13-yl)-3-(4-fluorophenyl)-N-methylpropionamide”, which ring closure, isolated yield [2, 4] is on record?
The ring closure, isolated yield was 60%.

For “(2S-(2S,13S))-N-(8-acetyl-2-(3-tert-butyl-4-hydroxyphenylmethyl)-3,14-dioxo-1,4,8-triazacyclotetradec-13-yl)-2-tert-butoxycarbonylamino-3-(4-fluorophenyl)-N-methylpropionamide”, which ring closure, isolated yield ([2]; 14-membered ring, BOP, DMF/pyridine 1:1, 9.9 mM) is on record?
Its ring closure, isolated yield is 55%.

With “(2S-(2S,14S))-2-(tert-butoxycarbonylamino)-N-(2-(3-tert-butyl-4-hydroxyphenylmethyl)-1,4,9-triaza-3,8,15-trioxocyclopentadec-14-yl)-3-(4-fluorophenyl)-N-methylpropionamide” as the compound, how does the ring closure, isolated yield ([2]; 15-membered ring, BOP/pyridine, DMF/pyridine 1:1, 10.1 mM) read?
The ring closure, isolated yield was 82%.
